From patent publication US11976083B2, “Inhibitors of peptidylarginine deiminases” (Gilead Sciences, Inc., priority 2020, dated 2024)

Each compound was assayed against T1, human PAD4 (Homo sapiens, UniProt Q9UM07) (assay: In vitro PAD4 BAEE biochemical assay). Conditions: BAEE substrate 3 mM, 5 nM PAD4, 2 mM calcium chloride; geometric mean of multiple experiments.
T1 construct: human PAD4 (NM_012387), A2-P663, was PCR amplified; His-SUMO (N, cleaved yes); made in house; host or cells: E. coli BL21(DE3)
T1 sequence (Q9UM07 2-663): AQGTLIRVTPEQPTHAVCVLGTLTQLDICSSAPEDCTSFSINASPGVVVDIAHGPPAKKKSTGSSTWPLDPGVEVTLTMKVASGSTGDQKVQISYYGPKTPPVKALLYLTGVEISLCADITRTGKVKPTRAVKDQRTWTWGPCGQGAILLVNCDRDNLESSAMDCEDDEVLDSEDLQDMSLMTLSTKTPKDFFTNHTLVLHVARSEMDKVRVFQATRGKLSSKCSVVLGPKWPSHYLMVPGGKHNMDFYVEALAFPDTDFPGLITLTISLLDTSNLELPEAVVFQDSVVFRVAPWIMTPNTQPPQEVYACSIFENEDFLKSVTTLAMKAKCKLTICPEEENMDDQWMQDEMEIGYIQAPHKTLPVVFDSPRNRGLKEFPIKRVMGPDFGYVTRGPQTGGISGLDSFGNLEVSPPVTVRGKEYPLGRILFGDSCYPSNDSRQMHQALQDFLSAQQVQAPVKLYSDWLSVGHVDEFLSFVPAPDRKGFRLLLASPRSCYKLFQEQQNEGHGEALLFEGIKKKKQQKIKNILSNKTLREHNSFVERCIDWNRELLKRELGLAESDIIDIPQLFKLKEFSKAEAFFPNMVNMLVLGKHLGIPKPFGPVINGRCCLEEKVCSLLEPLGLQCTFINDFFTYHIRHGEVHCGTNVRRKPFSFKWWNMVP
How it was run: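 Fluorescence read-out (ex 405/em 535 nm) of isoindole formed from ammonia, o-phthalaldehyde and DTT after EDTA stop. Reaction: 5 nM PAD4, 2 mM CaCl2, 3 mM BAEE, 2 h, 25 °C, after 30 min enzyme–compound preincubation. Normalised to BB-Cl-Amidine (50 µM) and DMSO controls.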

For COc1cc(C(=O)N2CC[C@@H](OC(F)F)[C@@H](N)C2)cc2nc(-c3cc4ccc5nc4n3CCCCCC[C@@](C)(C(F)(F)F)C(=O)N[C@@H]5C)n(C)c12 [Example 723, (8~{R},11~{R})-17-[5-[(3~ {S},4~{R})-3-amino-4-(difluoromethoxy)piperidine-1-carbonyl]-7-methoxy-1-methyl-benzimidazol-2-yl]-8,11-dimethyl-8-(trifluoromethyl)-1,10,19-triazatricyclo[10.5.2.0^ {15,18}]nonadeca-12(19), 13,15(18),16-tetraen-9-one], which IC50 is on record?
Its IC50 is 309 nM.

How did the IC50 turn out when COc1cc(C(=O)N2C[C@H]3CC[C@@H]2[C@@H]3N)cc2nc(-c3cc4ccc5nc4n3CCCCCC[C@](C)(C(F)(F)F)C(=O)N[C@@H]5C)n(C)c12 [Example 724, (8~{S},11~{R})-17-[5-[(1~{R},4~{R},7~{R})-7-amino-2-azabicyclo[2.2.1]heptane-2-carbonyl]-7-methoxy-1-methyl-benzimidazol-2-yl]-8,11-dimethyl-8-(trifluoromethyl)-1,10,19-triazatricyclo [10.5.2.0^{15,18}]nonadeca-12(19),13,15(18),16-tetraen-9-one] was run?
The IC50 was 94 nM.

For COc1cc(C(=O)N2CC[C@@H](OC(F)F)[C@@H](N)C2)cc2nc(-c3cc4ccc5nc4n3CCCCCC[C@](C)(C(F)(F)F)C(=O)N[C@@H]5C)n(C)c12 [Example 725, (8~{S},11~{R})-17-[5-[(3~ {S},4~{R})-3-amino-4-(difluoromethoxy)piperidine-1-carbonyl]-7-methoxy-1-methyl-benzimidazol-2-yl]-8,11-dimethyl-8-(trifluoromethyl)-1,10,19-triazatricyclo[10.5.2.0^ {15,18}]nonadeca-12(19),13,15(18),16-tetraen-9-one], which IC50 is on record?
The IC50 was 136 nM.

With COc1cc(C(=O)N2[C@H]3CC[C@@H]2[C@H](N)[C@H](OC)C3)cc2nc(-c3cc4ccc5nc4n3CC(F)(F)CCC[C@@H]3C[C@H]3C(=O)N[C@@H]5C)n(C)c12 [Example 726, (2~{R},5~{R},7~{R})-14-[5-[(1~{R},2~{S},3~{R}, 5~{S})-2-amino-3-methoxy-8-azabicyclo[3.2.1]octane-8-carbonyl]-7-methoxy-1-methyl-benzimidazol-2-yl]-11,11-difluoro-2-methyl-3,13,19-triazatetracyclo[11.5.2.0^ {5,7}.0^{16,20}] icosa-1(19),14,16(20), 17-tetraen-4-one] as the compound, how does the IC50 read?
Its IC50 is 23 nM.

COc1cc(C(=O)N2CC[C@@H](OC)[C@@H](N)C2)cc2nc(-c3cc4ccc5nc4n3CC(F)(F)CCCC[C@@](C)(C(F)(F)F)C(=O)N[C@@H]5C)n(C)c12 [Example 727, (8~{R},11~{R})-17-[5-[(3~{S), 4~{R})-3-amino-4-methoxy-piperidine-1-carbonyl]-7-methoxy-1-methyl-benzimidazol-2-yl]-3,3-difluoro-8,11-dimethyl-8-(trifluoromethyl)-1,10,19-triazatricyclo[10.5.2.0^ {15,18}]nonadeca-12(19),13,15(18),16-tetraen-9-one] was tested. Which IC50 did it give?
Its IC50 is 93 nM.

For COc1cc(C(=O)N2C[C@H](N)C[C@@H](F)C2)cc2nc(-c3cc4ccc5nc4n3CC(F)(F)CCCC[C@@](C)(C(F)(F)F)C(=O)N[C@@H]5C)n(C)c12 [Example 728, (8~{R},11~{R})-17-[5-[(3~ {R},5~{R})-3-amino-5-fluoro-piperidine-1-carbonyl]-7-methoxy-1-methyl-benzimidazol-2-yl]-3,3-difluoro-8,11-dimethyl-8-(trifluoromethyl)-1,10,19-triazatricyclo[10.5.2.0^ {15,18}]nonadeca-12(19),13,15(18),16-tetraen-9-one], which IC50 is on record?
Its IC50 is 75 nM.

Which IC50 does the source give for CO[C@@H]1CCN(C(=O)c2cc3c4c(c2)nc(-c2cc5ccc6nc5n2CCCCC[C@@H]2C[C@H]2C(=O)N[C@@H]6C)n4CCO3)C[C@@H]1N [Example 729, (2~{R},5~{R},7~{R})-14-[6-[(3~{S},4~{R})-3-amino-4-methoxy-piperidine-1-carbonyl]-9-oxa-1,3-diazatricyclo [6.3.1.0^{4,12}]dodeca-2,4,6,8(12)-tetraen-2-yl]-2-methyl-3,13,19-triazatetracyclo[11.5.2.0^ {5,7}.0^{16,20}] icosa-1(19),14,16(20),17-tetraen-4-one] here?
The IC50 was 307 nM.

For COc1cc(C(=O)N2CC[C@@H](OC(F)F)[C@@H](N)C2)cc2nc(-c3cc4ccc5nc4n3CC(F)(F)CCCC[C@@](C)(C(F)(F)F)C(=O)N[C@@H]5C)n(C)c12 [Example 730, (8~{R},11~{R})-17-[5-[(3~ {S},4~{R})-3-amino-4-(difluoromethoxy)piperidine-1-carbonyl]-7-methoxy-1-methyl-benzimidazol-2-yl]-3,3-difluoro-8,11-dimethyl-8-(trifluoromethyl)-1,10,19-triazatricyclo [10.5.2.0^{15,18}]nonadeca-12(19),13,15(18),16-tetraen-9-one], which IC50 is on record?
The IC50 was 270 nM.

With COc1cc(C(=O)N2CC[C@@H](OC)[C@@H](N)C2)cc2nc(-c3cc4ccc5nc4n3CCCCCc3cc4ccccc4nc3C(=O)N[C@@H]5C)n(C)c12 [Example 731, (2~{R})-21-[5-[(3~{S},4~{R})-3-amino-4-methoxy-piperidine-1-carbonyl]-7-methoxy-1-methyl-benzimidazol-2-yl]-2-methyl-3,6,20,26-tetrazapentacyclo[18.5.2.0^ {5,14}.0^{7,12}.0^{23,27}] heptacosa-1(26),5(14), 6,8,10,12,21,23(27),24-nonaen-4-one] as the compound, how does the IC50 read?
Its IC50 is 140 nM.

For COc1cc(C(=O)N2CC[C@@H](OC(F)F)[C@@H](N)C2)cc2nc(-c3cc4ccc5nc4n3CCCCCc3cc4ccccc4nc3C(=O)N[C@@H]5C)n(C)c12 [Example 732, (2~{R})-21-[5-[(3~{S},4~{R})-3-amino-4-(difluoromethoxy)piperidine-1-carbonyl]-7-methoxy-1-methyl-benzimidazol-2-yl]-2-methyl-3,6,20,26-tetrazapentacyclo[18.5.2.0^ {5,14}.0^{7,12}.0^{23,27}] heptacosa-1(26),5(14),6,8,10, 12,21,23(27),24-nonaen-4-one], which IC50 is on record?
Its IC50 is 214 nM.

With COc1cc(C(=O)N2CC[C@@H](OC)[C@@H](N)C2)cc2nc(-c3cc4ccc5nc4n3CC(F)(F)CCCC[C@](C)(C(F)(F)F)C(=O)N[C@@H]5C)n(C)c12 [Example 733, (8~{S},11~{R})-17-[5-[(3~ {S},4~{R})-3-amino-4-methoxy-piperidine-1-carbonyl]-7-methoxy-1-methyl-benzimidazol-2-yl]-3,3-difluoro-8,11-dimethyl-8-(trifluoromethyl)-1,10,19-triazatricyclo[10.5.2.0^ {15,18}]nonadeca-12(19),13,15(18),16-tetraen-9-one] as the compound, how does the IC50 read?
The IC50 was 96 nM.

With C[C@H]1NC(=O)[C@@H]2C[C@H]2CCCCCn2c(-c3nc4cc(C(=O)N5CC[C@@H](OC(F)F)[C@@H](N)C5)cc5c4n3CCO5)cc3ccc1nc32 [Example 734, (2~{R},5~{R},7~{R})-14-[6-[(3~{S},4~{R})-3-amino-4-(difluoromethoxy)piperidine-1-carbonyl]-9-oxa-1,3-diazatricyclo[6.3.1.0^{4,12}]dodeca-2,4,6,8(12)-tetraen-2-yl]-2-methyl-3,13,19-triazatetracyclo[11.5.2.0^ {5,7}.0^{16,20}]icosa-1(19), 14,16(20),17-tetraen-4-one] as the compound, how does the IC50 read?
Its IC50 is 185 nM.
